# Laboratory results reported in ChEMBL document CHEMBL1201862, “PubChem BioAssay data set” (2004).
# Values joined by “and” are separate entries in the source; they are usually repeats but may differ in a detail not shown here. Identical values can stand only once. Active and inactive are the calls of the source.
# Experiments:
# [1] = rise of 2N DNA cells, HeLa – IC50, dose response (AID 1117349); type: functional, cell-based
# [2] = RKO cell viability reduction, dose response, CellTiter-Glo luminescence (AID 1117322); type: functional
# SN12K1 = experiment: cells; type: functional; conditions: Homo sapiens
# P388 = experiment: cells; type: functional; conditions: Mus musculus
# P388/ADR = experiment: cells; type: functional; conditions: Mus musculus
# [3] = cytotoxicity toward HT-29 cells – cell-based, CellTiter-Glo luminescence, IC50, dose response (AID 1117330); type: functional
# [4] = microbe, parasite or virus in culture; type: functional; conditions: Mycobacterium tuberculosis
# [5] = HCT116 cell viability decrease, GSK3B pretreatment – CellTiter-Glo, IC50, dose response (AID 1117339); type: functional; conditions: HCT-116
# [6] = rise of 4N DNA cells, HeLa – IC50, dose response (AID 1117351); type: functional, cell-based
# [7] = target: NAD-dependent protein deacylase sirtuin-5, mitochondrial (Homo sapiens, UniProt Q9NXA8); experiment: sirtuin-5 deacylation blockers, concentration series – biochemical, fluorescence imaging, cherry-pick, set 5, dose response (AID 720591);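 also: desuccinylation of succinyl peptide AMC substrate read as fluorescence after trypsin release; potency of inhibitors that lower fluorescence and may act on trypsin instead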
# NAD-dependent protein deacylase sirtuin-5, mitochondrial, sequence (Q9NXA8 whole entry): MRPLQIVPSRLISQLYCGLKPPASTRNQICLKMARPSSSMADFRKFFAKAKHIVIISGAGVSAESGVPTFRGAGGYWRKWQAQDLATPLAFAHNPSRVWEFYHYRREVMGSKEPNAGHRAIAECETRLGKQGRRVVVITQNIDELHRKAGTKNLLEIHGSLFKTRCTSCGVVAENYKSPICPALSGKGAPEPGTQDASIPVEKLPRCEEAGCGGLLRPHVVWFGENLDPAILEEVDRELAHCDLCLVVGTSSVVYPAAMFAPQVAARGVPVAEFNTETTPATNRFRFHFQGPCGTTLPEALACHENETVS
# [8] = viability reduction in hepatoma cells – cell-based, ATP luminescence, dry powder, Set4, cytotoxicity control, dose response (AID 743143); type: functional; conditions: HepG2
# [9] = OVCAR-3 cell viability loss – plate reader, dry powder samples, PAX8 inhibitor project, dose response (AID 743044); type: functional, cell-based
# [10] = OV-90 cell viability loss – plate reader, dry powder, SA8, PAX8 inhibitor project, dose response (AID 743149); type: functional, cell-based
# [11] = PAX5 cellular inhibition readout – cell-based, plate reader, dry powder samples, selectivity assay for PAX8 inhibitor project, dose response (AID 743047); type: functional;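 also: HEK293 cells carrying a Pax5 driven CD19 promoter luciferase reporter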
# Paired box protein Pax-8 = Paired box protein Pax-8 (Homo sapiens, UniProt Q06710); experiment: PAX8 transcriptional activity inhibition in RMG-I – RMG-I cells, luciferase, cherry-pick, dose response (AID 687027); type: functional, cell-based;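 also: luciferase reporter driven by Pax8 target thyroperoxidase promoter measured by SteadyGlo luminescence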
# Paired box protein Pax-8, sequence (Q06710 whole entry): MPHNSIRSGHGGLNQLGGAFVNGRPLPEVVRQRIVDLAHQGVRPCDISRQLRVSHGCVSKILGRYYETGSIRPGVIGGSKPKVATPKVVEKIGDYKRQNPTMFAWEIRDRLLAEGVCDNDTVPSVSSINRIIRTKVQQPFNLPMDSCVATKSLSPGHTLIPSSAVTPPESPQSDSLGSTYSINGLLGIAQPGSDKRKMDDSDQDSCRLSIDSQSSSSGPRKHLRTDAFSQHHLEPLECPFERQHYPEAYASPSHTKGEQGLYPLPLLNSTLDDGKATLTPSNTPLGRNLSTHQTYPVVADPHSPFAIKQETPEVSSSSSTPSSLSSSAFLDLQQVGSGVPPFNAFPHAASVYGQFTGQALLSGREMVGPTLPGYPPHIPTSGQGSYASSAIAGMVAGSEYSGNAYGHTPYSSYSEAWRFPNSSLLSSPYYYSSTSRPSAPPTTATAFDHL
# [12] = COV362 cell viability loss – plate reader, dry powder, SA12, cytotoxicity control for PAX8 inhibitor project, dose response (AID 743144); type: functional, cell-based
# [13] = PAX8-dependent cell viability loss – plate reader, dry powder, dose response (AID 743049); type: functional, cell-based
# [14] = COV434 cell viability loss – plate reader, dry powder, SA7, cytotoxicity control for PAX8 inhibitor project, dose response (AID 743145); type: functional, cell-based
# [15] = OVCAR4 cell viability loss – plate reader, dry powder, SA11, cytotoxicity control for PAX8 inhibitor project, dose response (AID 743150); type: functional, cell-based; conditions: OVCAR-4
# [16] = IGROV1 cell killing – plate reader, dry powder samples, PAX8 inhibitor project, dose response (AID 743043); type: functional, cell-based; conditions: IGROV-1
# [17] = OVCAR8 cell viability loss – plate reader, dry powder samples, PAX8 project, dose response (AID 743197); type: functional, cell-based; conditions: OVCAR-8
# Bcl-2-related protein A1 [18] = target: T1, Bcl-2-related protein A1 (Mus musculus, UniProt Q07440); experiment: displacement of Bid BH3 peptide from Bfl-1 – biochemical, fluorescence polarization, FITC-Bid, mouse, primary screen (AID 432)
# T1 sequence (Q07440 whole entry): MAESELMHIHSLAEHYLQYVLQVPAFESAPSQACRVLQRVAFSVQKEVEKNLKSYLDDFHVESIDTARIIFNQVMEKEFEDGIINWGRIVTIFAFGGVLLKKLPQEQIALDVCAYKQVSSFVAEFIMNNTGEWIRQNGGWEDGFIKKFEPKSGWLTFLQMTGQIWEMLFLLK
# [19] = target: Glyceraldehyde-3-phosphate dehydrogenase (Homo sapiens, UniProt P04406)
# Glyceraldehyde-3-phosphate dehydrogenase, sequence (P04406 whole entry): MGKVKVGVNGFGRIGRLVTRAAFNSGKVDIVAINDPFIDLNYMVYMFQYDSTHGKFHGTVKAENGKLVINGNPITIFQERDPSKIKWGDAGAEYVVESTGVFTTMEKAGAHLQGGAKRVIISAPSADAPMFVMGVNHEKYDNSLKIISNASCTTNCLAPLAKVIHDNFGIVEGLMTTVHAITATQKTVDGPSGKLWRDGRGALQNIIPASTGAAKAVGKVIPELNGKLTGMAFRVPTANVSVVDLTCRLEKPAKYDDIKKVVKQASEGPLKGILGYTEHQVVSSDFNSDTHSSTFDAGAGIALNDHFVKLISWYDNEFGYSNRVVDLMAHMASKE
# Bcl-2-related protein A1 [20] = target: T1, Bcl-2-related protein A1; experiment: Bfl-1 binding inhibitors, SAR follow-up, biochemical, fluorescence polarization (AID 1070)
# Bcl-2-related protein A1 [21] = target: T1, Bcl-2-related protein A1; experiment: small-molecule antagonists of Bfl-1/BH3 interaction – biochemical, TR-FRET, mouse Bfl-1, confirmation (AID 621);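 also: TR-FRET binding of GST-Bfl-1 to FITC-labelled Bid peptide via terbium antibody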
# [22] = viability loss in MITF-independent A375 cells – cell-based, CellTiter-Glo luminescence, dry powder, set 6, counter-screen for MITF inhibitor project, dose response (AID 624488); type: functional; conditions: A-375
# [23] = cytotoxicity in MITF-independent A375 cells – cell-based, CellTiter-Glo luminescence, dry powder, set 9, counter-screen for MITF modulator project, dose response (AID 651591); type: functional; conditions: A-375
# [24] = growth inhibition of SK-MEL-5 melanoma cells – cell-based, CellTiter-Glo luminescence, dry powder, set 8, orthogonal assay for MITF inhibitor project, dose response (AID 651586); type: functional
# [25] = viability loss in MITF-independent A375 cells – cell-based, CellTiter-Glo luminescence, dry powder, set 2, counter-screen for MITF inhibitor project, dose response (AID 624489); type: functional; conditions: A-375;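 also: actives are compounds lowering A375 viability meaning general cytotoxicity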
# [26] = MITF Measured in Cell-Based System Using Plate Reader - 2084-01_Inhibitor_Dose_DryPowder_Activity_Set6.; type: functional
# [27] = cytotoxicity in MITF-independent A375 cells – cell-based, CellTiter-Glo luminescence, dry powder, set 4, counter-screen for MITF inhibitor project, dose response (AID 624364); type: functional; conditions: A-375;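 also: A375 melanoma cells are MITF independent so this is a counter screen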
# [28] = MITF Measured in Cell-Based System Using Plate Reader - 2084-01_Inhibitor_Dose_DryPowder_Activity_Set7.; type: functional
# [29] = cytotoxicity in melanoma parental cells – cell-based, CellTiter-Glo, dry powder, set 6, MITF inhibitor project, dose response (AID 624429); type: functional; conditions: SK-MEL-5
# [30] = inhibitors of TRPM1-promoter reporter in SK-MEL-5 – cell-based, luciferase, dry powder, set 9, MITF inhibitor project, dose response (AID 651588); type: functional
# [31] = growth inhibition of MALME3 cells – cell-based, CellTiter-Glo luminescence, dry powder, set 5, orthogonal assay for MITF inhibitor project, dose response (AID 651584); type: functional; conditions: MALME-3
# [32] = MITF Orthogonal Assay: SK-MEL-5 CTG Assay Measured in Cell-Based System Using Plate Reader - 2084-02_Inhibitor_Dose_DryPowder_Activity_Set5.; type: functional
# [33] = MITF Orthogonal Assay: MALME3 CTG Assay Measured in Cell-Based System Using Plate Reader - 2084-04_Inhibitor_Dose_DryPowder_Activity_Set6.; type: functional; conditions: MALME-3
# [34] = viability loss in MITF-independent A375 cells – cell-based, CellTiter-Glo luminescence, dry powder, set 7, counter-screen for MITF inhibitor project, dose response (AID 624490); type: functional; conditions: A-375
# [35] = general cell-killing toxicity readout – plate reader, dry powder samples, cytotoxicity control for PAX8 inhibitor project, dose response (AID 743021); type: functional, cell-based
# INS1 = experiment: INS-1E survival protection against cytokine death – cell-based, luminescence, retest, dose response (AID 449756); type: functional; conditions: Rattus norvegicus;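 also: cell death triggered by IL-1 beta plus TNF-alpha plus IFN-gamma mixture; protective hits raise ATP signal compared with cytokine alone wells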
# [36] = target: E3 ubiquitin-protein ligase Mdm2 (Homo sapiens, UniProt Q00987); experiment: MDM2-luc reporter signal enhancers, multi-concentration potency testing, MDM2 ubiquitin-protein ligase inhibitor program, whole-cell format, luminescence detection, 384-well microplate (AID 1394); type: functional;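 also: MDM2 E3 inhibitors raise luminescence so EC50 is for signal enhancement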
# E3 ubiquitin-protein ligase Mdm2, sequence (Q00987 whole entry): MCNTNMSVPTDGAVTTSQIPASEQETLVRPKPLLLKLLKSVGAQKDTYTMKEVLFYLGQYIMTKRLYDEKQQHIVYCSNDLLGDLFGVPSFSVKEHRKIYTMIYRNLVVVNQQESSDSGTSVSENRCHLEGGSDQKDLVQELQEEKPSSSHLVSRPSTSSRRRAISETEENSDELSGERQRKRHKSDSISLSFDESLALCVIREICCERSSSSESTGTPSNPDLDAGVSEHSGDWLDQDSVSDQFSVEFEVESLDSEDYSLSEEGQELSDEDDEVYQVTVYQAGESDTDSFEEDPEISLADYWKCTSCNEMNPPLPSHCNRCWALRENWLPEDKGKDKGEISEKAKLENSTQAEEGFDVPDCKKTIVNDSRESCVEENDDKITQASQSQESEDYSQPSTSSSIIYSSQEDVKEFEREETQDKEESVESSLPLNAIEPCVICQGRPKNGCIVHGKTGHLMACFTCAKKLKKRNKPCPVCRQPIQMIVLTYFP
# BJ = experiment: growth inhibition of engineered Ras-driven BJ cells – cell-based, alamar blue fluorescence, cherrypicked samples, dose response (AID 2631); type: functional; conditions: Homo sapiens;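 also: confirmatory dose-response assay in RAS-dependent BJ fibroblasts engineered with TERT, LT and ST, with cytotoxicity read by fluorescence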
# [37] = NIH-3T3 fibroblast cytotoxicity, dose response, cytotoxicity control, cell-based, fluorescence, Alamar Blue, secondary assay (AID 2327); type: functional;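 also: NIH-3T3 mouse fibroblasts cultured with fluconazole at 8 µg/mL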
smiles,measurement,setting,value
CO[C@@]12[C@H](COC(N)=O)C3=C(C(=O)C(C)=C(N)C3=O)N1C[C@@H]1N[C@@H]12 [MITOMYCIN],IC50,[1],0.0133 µM (active)
same,IC50,[2],0.995 µM (active)
same,GI50,SN12K1,0.959 µM (active)
same,GI50,P388,0.181 µM (active)
same,GI50,P388/ADR,1.39 µM (inactive)
same,IC50,[3],2.57 µM (active)
same,CC50,[4],> 40 µM (active)
same,IC50,[5],> 20 µM (inactive)
same,IC50,[6],> 10 µM (inactive)
CC(=O)CSc1nnc(-c2ccco2)n1-c1ccccc1,AC50,[7],> 30 µM (inactive)
O=C(CNC(=O)c1ccc(Cl)c(Cl)c1)N[C@@H]1CCCc2ccccc21,AC50,[8],> 52 µM (inactive)
CN(C[C@H]1N[C@@H](CO)[C@@H]1c1ccc(C2=CCCC2)cc1)C(=O)c1ccncc1,AC50,[9],10.9 µM (active)
same,AC50,[10],47.5 µM (active)
same,AC50,[11],> 32 µM (inactive)
same,AC50,Paired box protein Pax-8,6.17 µM (active)
same,AC50,[12],21.1 µM (active)
same,AC50,[13],16.3 µM (active)
same,AC50,[14],19.3 µM (active)
same,AC50,[15],16.2 µM (active)
same,AC50,[16],16.2 µM (active)
same,AC50,[17],17.5 µM (active)
COc1ccccc1C(=O)C1Nc2ccccc2-c2nnc(SC)nc2O1 (centres undefined),IC50,Bcl-2-related protein A1 [18],4.79 µM (active)
same,IC50,[19],> 100 µM (not active)
same,IC50,Bcl-2-related protein A1 [20],> 100 µM (not active)
same,IC50,Bcl-2-related protein A1 [21],> 100 µM (not active) and 4.6 µM (active)
NC1=C(NC(=O)c2ccccc2)C(=O)c2ccccc2C1=O,AC50,[22],60.3 µM (active)
same,AC50,[23],> 70 µM (inactive)
same,AC50,[24],10.1 µM (active)
same,AC50,[25],59.8 µM (active)
same,AC50,[26],4.07 µM (active)
same,AC50,[27],> 70 µM (inactive)
same,AC50,[28],7.02 µM (active)
same,AC50,[29],9.56 µM (active)
same,AC50,[30],18.6 µM (active)
same,AC50,[31],14.3 µM (active)
same,AC50,[32],6.7 µM (active)
same,AC50,[33],14.3 µM (active)
same,AC50,[34],> 70 µM (inactive)
CC(=O)/C=C/n1c(=S)oc2ccccc21,AC50,[35],10 µM (active)
same,AC50,Paired box protein Pax-8,5.95 µM (active)
same,AC50,INS1,8.12 µM (active)
same,EC50,[36],0.01 µM (not active)
same,EC50,BJ,0.508 µM (inconclusive)
same,EC50,[37],3.97 µM (inconclusive)
